Data set [1] has as its system i.c.v Aβ1-42 injected nontransgenic mice. Kind of data set: T-maze spontaneous alternation in i.c.v Aβ1-42 injected mice. Format: in vivo, C57/BL6 mice. As for the experimental part:
(§1) Eight-week old Wild type C57/BL6 mice were treated i.p. with sulfanegen at 50 and 100 mg/kg dose during the entire duration of experiment. The mice were injected with intracerebroventricular (i.c.v) Aβ1-42 on day 3 after initiation of drug treatment (1 nmol/mouse). Behavioral test (T-maze) was conducted 6 days after Aβ1-42 injection, which was followed by euthanization on day 8. Biochemical analysis of the collected brain tissues was conducted using ELISA method for quantitation of Aβ1-42, and immunohistochemical analysis for GFAP (inflammatory marker). The brain tissues were also analyzed for oxidative stress markers (GSH assay, see Example 5; and protein carbonyls, see Example 6). • Groups: • Saline control N=12, (N=5 study 2; N=7 study 3) • Abeta control N=15, (N=7 study 2; N=8 study 3) • Sulfanegen, 50 mg/kg, N=7 • Sulfanegen, 100 mg/kg, N=7
Spontaneous alternation in a T-maze was used to assess working memory abilities, based on the innate tendency of mice to alternate their choice of a goal arm based on their recall of the initial choice. The T-maze used was made of black plexiglass as per dimensions stated in Nat Protocol, 2006 [PMID: 17406205, www.nature.com/articles/nprot.2006.2]. Mice were placed in the start arm with the central divider in place so that when entering either of the goal arms the mice were not able to see the other one. The mice were allowed to move freely in the whole hall, and then, after being confined to the start arm for 30 seconds, the animal was allowed to move freely for a total of 15 arm entrees. […] The alternation percentage was calculated by dividing the number of times the animal entered alternating arms by 14 (free-choice trials). […] Ratio of right and left arm entries was calculated to determine spatial preference of mice in different treatment groups. The data were analyzed using repeated measures analysis of variance (ANOVA) using Dunnett test.

The test system of data set [2] is IL-6. Kind of data set: IL-6 ELISA of brain tissue, i.c.v Aβ1-42 mice. The format is in vivo, C57/BL6 mice. As for the experimental part: as §1
IL-6 ELISA (BMS603HS, invitrogen) was used. Brain tissue samples were assayed in duplicate. Briefly, the strips provided in the kit were washed with 400 μL wash buffer (lx) twice. 50 μL of brain homogenates or standards were added to 50 μL sample diluent (PBS) in each well. […] The samples were read at 450 nm (reference wavelength 620 nm). Quantification of IL-6 in each well was conducted using the standard curve and was normalized to the weight of brain tissue.
A general note: ELISA stands for enzyme-linked immunosorbent assay.

Data set [3] relates to GSH. Nature of the data set: Brain glutathione (GSH) and GSSG level, i.c.v Abeta mouse model. The format is in vivo, C57/BL6 mice. As for the experimental part: as §1
The brain GSH and GSSG level were measured with Glutathione assay kit (Cayman Chemical, Ann Arbor, MI) using the i.c.v Abeta mouse model (see Example 1). A total of 50 μl of sample was added to each well, and 150 μl the assay cocktail (MES buffer, reconstituted cofactor mixture, enzyme mixture, water, and DTNB) were added to the wells. The absorbance was measured at 414 nm using Spectra Max M5 microplate reader. Assay range was calculated under the standard curve (0-16 μM GSH or 0-8 μM GSSG). Results were expressed as nmol/mg protein and ratio of GSH/GSSG. Total GSH levels were higher in sulfanegen treated groups at both doses 50 mg/Kg and 100 mg/Kg. […] Reduced GSH levels were slightly lower in […] but not statistically significant.
The brain tissue for biochemical analysis was rapidly homogenized in these buffers 1) TBS (20 mM Tris-HCl and 150 mM NaCl) buffer with protease inhibitors and 5 M Guanidine-HCl in 50 mM Tris-HCl buffer for Aβ1-42 ELISA assay (FIG. 11, see Example 11 below), 2) 50 mM IVIES buffer for GSH (FIG. 8C, see Example 5) and Protein Carbonyl assay (FIG. 8B, see Example 6), 3) RIPA buffer with protease inhibitors for TBARS assay (FIG. 8A, see Example 7). […]

The test system of data set [4] is APP/PS1 transgenic mice. Nature of the data set: T-maze cognitive assessment in APP/PS1 transgenic mice. The format is in vivo. The following applies: 75 mg/kg i.p. for 12 weeks; 7 and 12 month cohorts. An excerpt:
Spontaneous alternation in a T-maze was used to assess working memory abilities, based on the innate tendency of mice to alternate their choice of a goal arm based on their recall of the initial choice. The T-maze used was made of black plexiglass as per dimensions stated in Nat Protocol, 2006 [PMID: 17406205, www.nature.com/articles/nprot.2006.2]. Mice were placed in the start arm with the central divider in place so that when entering either of the goal arms the mice were not able to see the other one. The mice were allowed to move freely in the whole hall, and then, after being confined to the start arm for 30 seconds, the animal was allowed to move freely for a total of 15 arm entrees. […] The alternation percentage was calculated by dividing the number of times the animal entered alternating arms by 14 (free-choice trials). An arm entry is defined as the animal's tail tip entering the arm and repetitive arm entries as an animal re-entering the same arm three times in a row (e.g., 5 sequential entries into the same arm is 3 repetitive entries). Ratio of right and left arm entries was calculated to determine spatial preference of mice in different treatment groups. The data were analyzed using repeated measures analysis of variance (ANOVA) using Dunnett test. […]

Data set [5] is described as follows: Oral bioavailability: plasma levels after i.v. and p.o. dosing (LC-MS/MS). The format is in vivo. The following applies: mouse. As for the experimental part:
To ascertain the distribution of sulfanegen to the brain, plasma and brain samples were harvested from intraperitoneally treated animal groups and analyzed via LC-MS/MS. A saline solution of sulfanegen was injected into the mouse peritoneum at a dose of 50 mg/kg. Specifically, samples were collected at 0.25, 0.5, 1, 2, and 4 h after the drug administration. […] Samples were immediately centrifuged at 3000 rpm for 10 min at 4° C., and the separated top plasma layer was transferred into a new tube. Blood samples were stored at −80° C. until LC-MS/MS analysis. For brain samples, brain tissue was extracted from the animal and washed with copious volumes of ice-cold D-PBS for removal of blood from the sample. The brain samples were homogenized by adding 1:5 (w/v) of ice-cold D-PBS into the tube and using a mechanical homogenizer on them. Homogenized brain samples were stored at −80° C.
Similar experimental design was used for determination of oral bioavailability of sulfanegen (Table 2). Plasma samples were collected after intravenous and oral administration of the compound and concentration of sulfanegen in these samples was determined using LC-MS/MS analysis.

The text below walks through data of patent publication US11925623B2 (priority 2020, dated 2024).

“Also recorded” adds a separate entry of the source. Where two headings read alike, the source gives them in different places.

In general, AUC refers to the area under the concentration-time curve, a measure of exposure. Broadly, the bioavailability is dose-corrected exposure relative to a reference, in per cent. Low readings indicate poor availability, high ones good availability.

For the compound `O=C(O)C1(O)CSC(O)(C(=O)O)CS1` (stereo not drawn) [sulfanegen], the “cognitive behavior / cognitive impairment by T-maze” value in data set [1] (50 and 100 mg/kg i.p.) is “marked improvement; also recorded: prevented cognitive impairment”. For the same compound, in data set [1] (50 and 100 mg/kg i.p., 6 days after Aβ1-42 injection), the “T-maze alternation and repetition behavior” value is “significant improvement”. Further, in data set [1] (i.p. sulfanegen-treated mice), the “spatial bias or anxiety-like behavior in T-maze” value is “did not exhibit spatial bias or anxiety-like behavior”. Further, the results for the “brain IL-6 level” value in data set [2] (50 mg/kg i.p.) and in data set [2] (100 mg/kg i.p.) were “reduction of increased IL-6 levels; also recorded: significant difference” and “Increase in IL-6”, respectively. For the same compound, the “total GSH levels in brain” value in data set [3] (50 mg/Kg and 100 mg/Kg) is “higher”. Moreover, in data set [3] (100 mg/Kg, compared to both vehicle and amyloid beta treatment), the “reduced GSH levels in brain” value is on record as “significantly higher”. Besides, the “GSH level as oxidative stress marker (legend of FIGS. 8A-8C)” value in data set [3] (50 or 100 mg/Kg) was “significantly reduced”. In addition, in data set [4], the “cognitive function (T-maze spontaneous alternation)” value is recorded as “improved cognitive function”. Moreover, the AUC in data set [5] (iv, 10 mg/kg, read-out: AUC, plasma, i.v.) was 32.6 µM·h; in data set [5] (po, 50 mg/kg, read-out: AUC, plasma, p.o.), 24.6 µM·h. The same compound displayed a bioavailability in data set [5] (oral, p.o. 50 mg/kg vs i.v. 10 mg/kg) of 15.1%.
